Measurements taken from patent US8019412B2, “Apparatus for facilitating transdermal delivery of therapeutic substances and method of transdermally delivering therapeutic substances” (International Scientific Pty Ltd., priority 2003, dated 2011).

System: excised human epidermal membranes
Assay type: in vitro ADME
Excerpt: In an experimental example, penetration of caffeine through excised human epidermal membranes was investigated using Franz-type diffusion cells and standard procedures. An electromagnetic field pattern was created and the penetration results compared with passive diffusion. The electromagnetic field pattern used was generated by applying an energisation signal having 12 pulses at a repeating frequency of 10 Hz to a coil Each of the pulses has a duration of approximately 360 μs. A phosphate buffered saline receptor solution was used and the amount of caffeine in the receptor solution determined by HPLC with UV detection at regular time intervals up to 6 hours post application of the electromagnetic field. In this example, the electromagnetic field pattern was applied for approximately 30 minutes.
Similar experiments were carried out with electromagnetic fields generated by applying an energisation signal having 15 pulses of 360 μs duration at a repeating frequency of 20 Hz to a coil, and by applying an energisation signal having 255 pulses at a repeating frequency of 2 Hz to a coil. These experiments yielded caffeine flux values of 7.20 μgcm^−2h^−1 and 8.51 μgcm^−2h^−1, although the latter of these experiments produced an effect only after 60 minutes.
A further experiment was carried out by applying an energisation signal having a single quasi-rectangular pulse repeated at 72 Hz to a coil.

## Cn1c(=O)c2c(ncn2C)n(C)c1=O [caffeine]
  caffeine flux associated with passive diffusion: ~4.1 μgcm^−2h^−1
  highest caffeine flux achieved with electromagnetic field pattern: 19.24 μgcm^−2h^−1
  time after which an effect was produced: ≥ 60 min
